Test results reported in PubChem BioAssay AID2060886 (Molecular Pharmacology Branch, DTP, NCI, 2025).
pIC50: −log10 of the molar value.

System: 653999-131-R-J2-PDC complex spheroids, growth inhibition
Assay: Anticancer human tumor 653999-131-R-J2-PDC patient-derived lung adenocarcinoma cell line growth inhibition [RAS]
Conditions: for viability, T/C: stronger effect = lower value
Summary of the method: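 Multi-cell-type spheroids: tumor cells plus HUVEC endothelial cells and mesenchymal stem cells. RAS-pathway inhibitors were combined with targeted agents, each dosed in half-log steps down from clinical Cmax, or from 10 microM when Cmax was unknown.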

[1] = curve of first compound, second compound 0.0316 µM
[2] = curve of first compound, second compound 0.1 µM
[3] = curve of first compound, second compound 0.316 µM
[4] = curve of first compound, second compound 1 µM
[5] = curve of first compound, second compound 3.16 µM
[6] = curve of first compound, second compound 10 µM
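Also: spheroids exposed to the agents for seven days before the readout.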

CC1(C)CCC(Nc2ncc(C(F)(F)F)c(-c3c[nH]c4c(P(C)(C)=O)c(C#N)ccc34)n2)CN1 (configuration not stated) + C#Cc1c(F)ccc2cc(O)cc(-c3ncc4c(N5CC6CCC(C5)N6)nc(OCC56CCCN5CC(F)C6)nc4c3F)c12 gave a pIC50 [1] of under 6.52, a pIC50 [2] of under 6.52 and a pIC50 [3] of 8.57. For the same compound, the pIC50 [4] was over 9.02, the pIC50 [5] was over 9.02 and the pIC50 [6] was over 9.02. It also gave a viability, T/C (second compound 0.0316 µM, first compound 0.000949 µM) of 84.7%, a viability, T/C (second compound 0.0316 µM, first compound 0.003 µM) of 66.3% and a viability, T/C (second compound 0.0316 µM, first compound 0.00949 µM) of 62.9%. For the same compound, the viability, T/C (second compound 0.0316 µM, first compound 0.03 µM) was 61.5%, the viability, T/C (second compound 0.0316 µM, first compound 0.0949 µM) was 55.3% and the viability, T/C (second compound 0.0316 µM, first compound 0.3 µM) was 55.6%. The viability, T/C (second compound 0.1 µM, first compound 0.000949 µM) was 69.9%, the viability, T/C (second compound 0.1 µM, first compound 0.003 µM) was 64.2% and the viability, T/C (second compound 0.1 µM, first compound 0.00949 µM) was 59%. For the same compound, the viability, T/C (second compound 0.1 µM, first compound 0.03 µM) was 56.4%, the viability, T/C (second compound 0.1 µM, first compound 0.0949 µM) was 72.7% and the viability, T/C (second compound 0.1 µM, first compound 0.3 µM) was 55.6%. For the same compound, the viability, T/C (second compound 0.316 µM, first compound 0.000949 µM) was 59.6%, the viability, T/C (second compound 0.316 µM, first compound 0.003 µM) was 48.3% and the viability, T/C (second compound 0.316 µM, first compound 0.00949 µM) was 46.9%. The viability, T/C (second compound 0.316 µM, first compound 0.03 µM) was 47.3%, the viability, T/C (second compound 0.316 µM, first compound 0.0949 µM) was 44.4% and the viability, T/C (second compound 0.316 µM, first compound 0.3 µM) was 43.5%. It also gave a viability, T/C (second compound 1 µM, first compound 0.000949 µM) of 37.5%, a viability, T/C (second compound 1 µM, first compound 0.003 µM) of 36.3% and a viability, T/C (second compound 1 µM, first compound 0.00949 µM) of 37.1%. For the same compound, the viability, T/C (second compound 1 µM, first compound 0.03 µM) was 38.1%, the viability, T/C (second compound 1 µM, first compound 0.0949 µM) was 37.7% and the viability, T/C (second compound 1 µM, first compound 0.3 µM) was 39.3%. For the same compound, the viability, T/C (second compound 3.16 µM, first compound 0.000949 µM) was 33.8%, the viability, T/C (second compound 3.16 µM, first compound 0.003 µM) was 26.8% and the viability, T/C (second compound 3.16 µM, first compound 0.00949 µM) was 21.6%. It also gave a viability, T/C (second compound 3.16 µM, first compound 0.03 µM) of 22.1%, a viability, T/C (second compound 3.16 µM, first compound 0.0949 µM) of 27.1% and a viability, T/C (second compound 3.16 µM, first compound 0.3 µM) of 27.4%. For the same compound, the viability, T/C (second compound 10 µM, first compound 0.000949 µM) was 26.4%, the viability, T/C (second compound 10 µM, first compound 0.003 µM) was 20.2% and the viability, T/C (second compound 10 µM, first compound 0.00949 µM) was 16.7%. The viability, T/C (second compound 10 µM, first compound 0.03 µM) was 14.1%, the viability, T/C (second compound 10 µM, first compound 0.0949 µM) was 16.9% and the viability, T/C (second compound 10 µM, first compound 0.3 µM) was 17.4%.
For Cc1nc(N2CCC3(CC2)COC(C)C3N)c(CO)nc1Sc1ccnc(N)c1Cl (configuration not stated), the viability, T/C (compound 0.0316 µM) was 91.2% [middle of 4 runs], the viability, T/C (compound 0.1 µM) was 98.4% [middle of 4 runs] and the viability, T/C (compound 1 µM) was 87.6% [middle of 4 runs]. For the same compound, the viability, T/C (compound 3.16 µM) was 85.8% [middle of 4 runs] and the pIC50 (curve of compound) was under 5.00.
Work on NC1c2ccccc2OC12CCN(c1cnc3c(N4CCCc5ncccc54)n[nH]c3n1)CC2 (configuration not stated) + C#Cc1c(F)ccc2cc(O)cc(-c3ncc4c(N5CC6CCC(C5)N6)nc(OCC56CCCN5CC(F)C6)nc4c3F)c12 yielded a pIC50 [1] of under 5.00, a pIC50 [2] of 5.86 and a pIC50 [3] of over 7.50. The pIC50 [4] was over 7.50, the pIC50 [5] was over 7.50 and the pIC50 [6] was over 7.50. It also gave a viability, T/C (second compound 0.0316 µM, first compound 0.0316 µM) of 72.8%, a viability, T/C (second compound 0.0316 µM, first compound 0.1 µM) of 67.5% and a viability, T/C (second compound 0.0316 µM, first compound 0.316 µM) of 64.5%. For the same compound, the viability, T/C (second compound 0.0316 µM, first compound 1 µM) was 72.2%, the viability, T/C (second compound 0.0316 µM, first compound 3.16 µM) was 71.3% and the viability, T/C (second compound 0.0316 µM, first compound 10 µM) was 60.2%. The viability, T/C (second compound 0.1 µM, first compound 0.0316 µM) was 64.5%, the viability, T/C (second compound 0.1 µM, first compound 0.1 µM) was 75.4% and the viability, T/C (second compound 0.1 µM, first compound 0.316 µM) was 60.1%. The viability, T/C (second compound 0.1 µM, first compound 1 µM) was 53.2%, the viability, T/C (second compound 0.1 µM, first compound 3.16 µM) was 44.6% and the viability, T/C (second compound 0.1 µM, first compound 10 µM) was 41.1%. For the same compound, the viability, T/C (second compound 0.316 µM, first compound 0.0316 µM) was 48%, the viability, T/C (second compound 0.316 µM, first compound 0.1 µM) was 50.4% and the viability, T/C (second compound 0.316 µM, first compound 0.316 µM) was 40.4%. The viability, T/C (second compound 0.316 µM, first compound 1 µM) was 42.7%, the viability, T/C (second compound 0.316 µM, first compound 3.16 µM) was 32.6% and the viability, T/C (second compound 0.316 µM, first compound 10 µM) was 45.8%. The viability, T/C (second compound 1 µM, first compound 0.0316 µM) was 41.7%, the viability, T/C (second compound 1 µM, first compound 0.1 µM) was 34.8% and the viability, T/C (second compound 1 µM, first compound 0.316 µM) was 33.9%. The viability, T/C (second compound 1 µM, first compound 1 µM) was 32.4%, the viability, T/C (second compound 1 µM, first compound 3.16 µM) was 32.7% and the viability, T/C (second compound 1 µM, first compound 10 µM) was 19.5%. For the same compound, the viability, T/C (second compound 3.16 µM, first compound 0.0316 µM) was 30.3%, the viability, T/C (second compound 3.16 µM, first compound 0.1 µM) was 25.8% and the viability, T/C (second compound 3.16 µM, first compound 0.316 µM) was 16.9%. The viability, T/C (second compound 3.16 µM, first compound 1 µM) was 18.1%, the viability, T/C (second compound 3.16 µM, first compound 3.16 µM) was 18.7% and the viability, T/C (second compound 3.16 µM, first compound 10 µM) was 13%. It also gave a viability, T/C (second compound 10 µM, first compound 0.0316 µM) of 12%, a viability, T/C (second compound 10 µM, first compound 0.1 µM) of 7.13% and a viability, T/C (second compound 10 µM, first compound 0.316 µM) of 7.02%. It also gave a viability, T/C (second compound 10 µM, first compound 1 µM) of 6.33%, a viability, T/C (second compound 10 µM, first compound 3.16 µM) of 7.29% and a viability, T/C (second compound 10 µM, first compound 10 µM) of 7.2%.
With NC1c2ccccc2OC12CCN(c1cnc3c(N4CCCc5ncccc54)n[nH]c3n1)CC2 (configuration not stated) the viability, T/C (compound 0.0316 µM) was 73.8% [middle of 4 runs], the viability, T/C (compound 0.316 µM) was 75.5% [middle of 4 runs] and the viability, T/C (compound 1 µM) was 77.6% [middle of 4 runs]. For the same compound, the viability, T/C (compound 3.16 µM) was 83.9% [middle of 4 runs], the viability, T/C (compound 10 µM) was 78.4% [middle of 4 runs] and the pIC50 (curve of compound) was under 5.00.
For CC1(O)CCCC1n1c(=O)c(C(F)F)cc2cnc(NC3CCN(S(C)(=O)=O)CC3)nc21 (configuration not stated), the viability, T/C (compound 0.0316 µM) was 89.5% [middle of 4 runs], the viability, T/C (compound 0.1 µM) was 69.3% [middle of 4 runs] and the viability, T/C (compound 0.316 µM) was 65.3% [middle of 4 runs]. The viability, T/C (compound 1 µM) was 66.8% [middle of 4 runs], the viability, T/C (compound 3.16 µM) was 73.8% [middle of 4 runs] and the viability, T/C (compound 10 µM) was 35.3% [middle of 4 runs]. The IC50 (curve of compound) was 6.68 µM [middle of 4 runs].
